Experimental data taken from patent publication US11116771B2, “G protein-coupled receptor (GPCR) modulation by imipridones” (Oncoceutics, Inc., priority 2016, dated 2021).
Where a name gives a salt, the structure may show the parent alone.

Experiments:
[1] = molecular target: DRD2 alanine-scan mutation library (Homo sapiens, UniProt P14416, A177S)
[2] = molecular target: DRD2 alanine-scan mutation library (Homo sapiens, UniProt P14416, C107A)
[3] = molecular target: DRD2 alanine-scan mutation library (Homo sapiens, UniProt P14416, C118A)
[4] = molecular target: DRD2 alanine-scan mutation library (Homo sapiens, UniProt P14416, C182A)
[5] = molecular target: DRD2 alanine-scan mutation library (Homo sapiens, UniProt P14416, D114A)
[6] = molecular target: DRD2 alanine-scan mutation library (Homo sapiens, UniProt P14416, D80A)
[7] = molecular target: DRD2 alanine-scan mutation library (Homo sapiens, UniProt P14416, E248A)
[8] = molecular target: DRD2 alanine-scan mutation library (Homo sapiens, UniProt P14416, E95A)
[9] = molecular target: DRD2 alanine-scan mutation library (Homo sapiens, UniProt P14416, F189A)
[10] = molecular target: DRD2 alanine-scan mutation library (Homo sapiens, UniProt P14416, F198A)
[11] = molecular target: DRD2 alanine-scan mutation library (Homo sapiens, UniProt P14416, H393A)
[12] = molecular target: DRD2 alanine-scan mutation library (Homo sapiens, UniProt P14416, I122A)
[13] = molecular target: DRD2 alanine-scan mutation library (Homo sapiens, UniProt P14416, I128A)
[14] = molecular target: DRD2 alanine-scan mutation library (Homo sapiens, UniProt P14416, I184A)
[15] = molecular target: DRD2 alanine-scan mutation library (Homo sapiens, UniProt P14416, I377A)
[16] = molecular target: DRD2 alanine-scan mutation library (Homo sapiens, UniProt P14416, I394A)
[17] = molecular target: DRD2 alanine-scan mutation library (Homo sapiens, UniProt P14416, I397A)
[18] = molecular target: DRD2 alanine-scan mutation library (Homo sapiens, UniProt P14416, L125A)
[19] = molecular target: DRD2 alanine-scan mutation library (Homo sapiens, UniProt P14416, L81A)
[20] = molecular target: DRD2 alanine-scan mutation library (Homo sapiens, UniProt P14416, N23A)
[21] = molecular target: DRD2 alanine-scan mutation library (Homo sapiens, UniProt P14416, R132A)
[22] = molecular target: DRD2 alanine-scan mutation library (Homo sapiens, UniProt P14416, S121A)
[23] = molecular target: DRD2 alanine-scan mutation library (Homo sapiens, UniProt P14416, S193A)
[24] = molecular target: DRD2 alanine-scan mutation library (Homo sapiens, UniProt P14416, S197A)
[25] = molecular target: DRD2 alanine-scan mutation library (Homo sapiens, UniProt P14416, S419A)
[26] = molecular target: DRD2 alanine-scan mutation library (Homo sapiens, UniProt P14416, S7A)
[27] = molecular target: DRD2 alanine-scan mutation library (Homo sapiens, UniProt P14416, T119A)
[28] = molecular target: DRD2 alanine-scan mutation library (Homo sapiens, UniProt P14416, T165A)
[29] = molecular target: DRD2 alanine-scan mutation library (Homo sapiens, UniProt P14416, T205A)
[30] = molecular target: DRD2 alanine-scan mutation library (Homo sapiens, UniProt P14416, V190A)
[31] = molecular target: DRD2 alanine-scan mutation library (Homo sapiens, UniProt P14416, V196A)
[32] = molecular target: DRD2 alanine-scan mutation library (Homo sapiens, UniProt P14416, V83A)
[33] = molecular target: DRD2 alanine-scan mutation library (Homo sapiens, UniProt P14416, V91A)
[34] = molecular target: DRD2 alanine-scan mutation library (Homo sapiens, UniProt P14416, W386A)
[35] = molecular target: DRD2 alanine-scan mutation library (Homo sapiens, UniProt P14416, Y192A)
[36] = molecular target: DRD2 alanine-scan mutation library (Homo sapiens, UniProt P14416, Y199A)
[37] = molecular target: DRD2 alanine-scan mutation library (Homo sapiens, UniProt P14416, Y416A)
[38] = system: Staphylococcus aureus ATCC# 6538
[39] = system: Pseudomonas aeruginosa ATCC# 9027; details: 1:300 with TSB Mod Dilution; inoculum count 28
[40] = system: Bacillus subtilis ATCC# 6633; details: 1:300 with TSB Mod Dilution; inoculum count 52
[41] = system: Candida albicans ATCC# 10231; details: 1:300 with TSB Mod Dilution
[42] = system: Aspergillus brasiliensis ATCC# 16404; details: 1:300 with TSB Mod Dilution

DRD2 alanine-scan mutation library (Homo sapiens, UniProt P14416, Y192A), sequence (P14416 whole entry Y192A): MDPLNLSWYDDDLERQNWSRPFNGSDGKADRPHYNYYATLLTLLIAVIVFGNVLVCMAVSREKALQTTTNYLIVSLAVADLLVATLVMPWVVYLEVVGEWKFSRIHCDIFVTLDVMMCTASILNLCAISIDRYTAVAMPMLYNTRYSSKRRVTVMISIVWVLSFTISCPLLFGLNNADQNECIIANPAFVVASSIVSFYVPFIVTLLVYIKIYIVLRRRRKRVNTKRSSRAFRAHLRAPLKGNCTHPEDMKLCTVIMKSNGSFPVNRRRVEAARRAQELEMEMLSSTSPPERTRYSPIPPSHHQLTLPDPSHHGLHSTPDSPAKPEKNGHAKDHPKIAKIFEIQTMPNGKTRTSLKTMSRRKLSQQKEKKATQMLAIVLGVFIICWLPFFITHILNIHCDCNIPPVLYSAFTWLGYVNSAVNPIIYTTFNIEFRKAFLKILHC
DRD2 alanine-scan mutation library (Homo sapiens, UniProt P14416, T119A), sequence (P14416 whole entry T119A): as the sequence (P14416 whole entry Y192A) above, with T119A, A192Y counted along it
DRD2 alanine-scan mutation library (Homo sapiens, UniProt P14416, D114A), sequence (P14416 whole entry D114A): as the sequence (P14416 whole entry Y192A) above, with D114A, A192Y counted along it
DRD2 alanine-scan mutation library (Homo sapiens, UniProt P14416, S193A), sequence (P14416 whole entry S193A): as the sequence (P14416 whole entry Y192A) above, with A192Y, S193A counted along it
DRD2 alanine-scan mutation library (Homo sapiens, UniProt P14416, V190A), sequence (P14416 whole entry V190A): as the sequence (P14416 whole entry Y192A) above, with V190A, A192Y counted along it
DRD2 alanine-scan mutation library (Homo sapiens, UniProt P14416, D80A), sequence (P14416 whole entry D80A): as the sequence (P14416 whole entry Y192A) above, with D80A, A192Y counted along it
DRD2 alanine-scan mutation library (Homo sapiens, UniProt P14416, I377A), sequence (P14416 whole entry I377A): as the sequence (P14416 whole entry Y192A) above, with A192Y, I377A counted along it
DRD2 alanine-scan mutation library (Homo sapiens, UniProt P14416, R132A), sequence (P14416 whole entry R132A): as the sequence (P14416 whole entry Y192A) above, with R132A, A192Y counted along it
DRD2 alanine-scan mutation library (Homo sapiens, UniProt P14416, F189A), sequence (P14416 whole entry F189A): as the sequence (P14416 whole entry Y192A) above, with F189A, A192Y counted along it
DRD2 alanine-scan mutation library (Homo sapiens, UniProt P14416, W386A), sequence (P14416 whole entry W386A): as the sequence (P14416 whole entry Y192A) above, with A192Y, W386A counted along it
DRD2 alanine-scan mutation library (Homo sapiens, UniProt P14416, F198A), sequence (P14416 whole entry F198A): as the sequence (P14416 whole entry Y192A) above, with A192Y, F198A counted along it

NCCc1ccc(O)c(O)c1 [Dopamine, dopamine]
Calcium Flux as a % of flux with WT DRD2 (100), Dopamine 1 nM [1]: 85%
Calcium Flux % WT [2]: 20 % WT
Calcium Flux % WT [3]: 14 % WT
Calcium Flux % WT [4]: 0 % WT
Calcium Flux % WT [5]: 4 % WT
Calcium Flux % WT [6]: 3 % WT
Calcium Flux % WT [7]: 19 % WT
Calcium Flux as a % of flux with WT DRD2 (100), Dopamine 1 nM [8]: 123%
Calcium Flux % WT [9]: 22 % WT
Calcium Flux % WT [10]: 10 % WT
Calcium Flux % WT [11]: 4 % WT
Calcium Flux % WT [12]: 23 % WT
Calcium Flux % WT [13]: 27 % WT
Calcium Flux % WT [14]: 0 % WT
Calcium Flux % WT [15]: 11 % WT
Calcium Flux % WT [16]: 16 % WT
Calcium Flux as a % of flux with WT DRD2 (100), Dopamine 1 nM [17]: 105%
Calcium Flux % WT [18]: 25 % WT
Calcium Flux as a % of flux with WT DRD2 (100), Dopamine 1 nM [19]: 83%
Calcium Flux % WT [20]: 25 % WT
Calcium Flux % WT [21]: 3 % WT
Calcium Flux % WT [22]: 16 % WT
Calcium Flux % WT [23]: 1 % WT
Calcium Flux % WT [24]: 0 % WT
Calcium Flux % WT [25]: 20 % WT
Calcium Flux % WT [26]: 15 % WT
Calcium Flux % WT [27]: 1 % WT
Calcium Flux as a % of flux with WT DRD2 (100), Dopamine 1 nM [28]: 92%
Calcium Flux % WT [29]: 24 % WT
Calcium Flux % WT [30]: 20 % WT
Calcium Flux as a % of flux with WT DRD2 (100), Dopamine 1 nM [31]: 119%
Calcium Flux % WT [32]: 10 % WT
Calcium Flux as a % of flux with WT DRD2 (100), Dopamine 1 nM [33]: 119%
Calcium Flux % WT [34]: 15 % WT
Calcium Flux as a % of flux with WT DRD2 (100), Dopamine 1 nM [35]: 64%
Calcium Flux % WT [36]: 20 % WT
Calcium Flux % WT [37]: 12 % WT

Cc1ccccc1CN1C(=O)C2=C(CCN(Cc3ccccc3)C2)N2CCN=C12 [ONC201 dihydrochloride]
Indicator Organisms Count, Sa [38]: 0
Indicator Organisms Count, Pa [39]: 24
Indicator Organisms Count, Bs [40]: 48
Indicator Organisms Count, Ca (TSA) ([41]; inoculum count 48): 51
Indicator Organisms Count, CA (SDA) ([41]; inoculum count 52): 46
Indicator Organisms Count, Ab (SDA) ([42]; inoculum count 20): 19
Indicator Organisms Count, Ab (TSA) ([42]; inoculum count 21): 18
